In patent publication US20240239790A1, “7-Morpholino-1,6-Naphthyridin-5-yl Derivatives and Pharmaceutical Compositions Thereof Useful as DNA-PK Inhibitor” (adMare Therapeutics Society, priority 2021, published 2024):
Where two headings read alike, the source gives them in different places.

How the values were obtained:
FaDu tumour xenograft = assay: Clonogenic Survival, FaDu tumour xenograft-bearing Rag2M mice, compound ± radiation (CS-ER); assay type: in vivo, mouse; conditions: 30 mpk + 8 Gy
Method: FaDu tumour xenograft-bearing Rag2M mice were treated with single administrations of test compounds at indicated doses±radiation as indicated, at time 0.
Mice were irradiated at 1 h post compound administration (unless otherwise indicated), with 300 KV X-rays and a 10 mA current from a Precision XRAD 300 machine (USA) with a beam-hardening filter (2 mm Al+0.25 mm Cu+0.75 mm Sn) and an adjustable site to specimen distance (SSD) at a dose of 8-10 Gy, delivered at a rate of ˜1.05 Gy/min.
Mice were terminated at times after irradiation as indicated, and tumour tissues excised. A portion of tumour approximately 300-500 mg was briefly minced using sterile scissors and placed in a pre-weighed gentleMACS C tube (Miltenyi Biotec cat #130-093-237) and weighed with combined tumour+tube mass recorded. A 5 mL aliquot of enzyme cocktail comprising of trypsin/DNase/collagenase/EDTA-Na2 in PBS (1 mg/ml trypsin+0.26 mg/ml DNase+0.21 mg/ml collagenase+2 mM EDTA-Na2) was added to the tube, which is then run on the gentleMACS Dissociator disaggregation system. Tubes were then incubated at 37° C. and continually rotated for 20 min before again running on the gentleMACS Dissociator program. Samples were then diluted with 5 ml MEM medium containing 5% FBS and filtered (Falcon cell strainer 100 μm, cat #352360). After centrifugation (1100 rpm for 6 minutes at 4° C.) supernatant was aspirated and the cells resuspended in 4 ml cold growth medium (MEM+10% FBS)+50 ul DNase (5 mg/ml DNase solution). Cell numbers were counted from the same cell solution using a hemacytometer. Appropriate dilutions (control: 10,000 cells/ml; 8Gy: 400,000 cells/ml; drug+radiation treated; 500,000 cells/ml) were made and cells then plated in triplicate: control: 100 μl and 300 μl (1000 and 3000 cells/6 cm tissue culture plate); 8Gy: 30 μl, 105 μl and 350 μl (12000, 42000 cells/6 cm plates and 140000 cells/10 cm plate); drug+8Gy: 70 μl, 300p, 1.2 ml (35000 and 150000 cells/6 cm plates and 600000 cells/10 cm plates—only duplicate). Plates were incubated at 37° C. (in a 5% CO2, 5% O2 and balance N2 environment) for 14 days. For a final and accurate automated live-cell counting a solution of Hoechst33342 (0.01 mg/ml)+Propidium Iodide (0.004 mg/ml) in 0.9% saline was mixed with an appropriate cell number dilution of the samples in 96 well plates (50 ul staining solution+50 ul cell suspension of 10000 cells/ml) and images are taken of the wells and cell numbers are calculated by a computer program.
After 14 days plates were removed from the incubator, rinsed with PBS and stained with cold 2 g/L Malachite green oxalate salt solution (Sigma-Aldrich, cat #M6880) for 30 minutes at room temperature. Plates were rinsed with distilled water and dried. Pictures were obtained of the plates and colonies consisting of 50 or more cells were counted using a Stuart Scientific colony counter.
All plates with colonies were analyzed except when colony numbers were so high that the edges of individual colonies could not be determined accurately. Plating efficiency (PE) of each tumour sample was calculated first: PE is a ratio of the number of colonies to the number of cells seeded (sum of all the colonies countable in all the plates of the same sample divided by the sum of cells plated in the same plates). The PE of control tumours was averaged for the calculation of surviving fraction (SF): SF is based on the number of colonies formed in drug and/or radiation treated cells relative to that of untreated control (PE of treated tumor sample divided by PE of control). All treated data points were compared separately to the average of the controls. Finally a Clonogenic Survival Enhancement Ratio (CS-ER) was calculated: the SF of irradiated control groups were divided by the SF of treatment groups to determine treatment group-specific CS-ER values, and these were assigned scores based on defined response ranges: values>6=A, 4-6=B, <4=C.

[1] = Pharmacokinetic study in mice (IV and PO), plasma; assay type: in vivo, mouse; conditions: for Rsq: Mouse Plasma, fit of NCA; for F: Mouse, PO 10 mg/kg vs IV 3 mg/kg; for AUC(0-t) / Cmax at 5 min / half-life / AUC(0-inf): female, C57BL/6; for AUC(0-t) / Cmax at 5 min / half-life / AUC(0-inf) / AUC_% Extrap_obs / Cl_obs / Vz_obs: mouse plasma; for AUC(0-inf): read-out: AUCINF_obs
Method: Pharmacokinetic analysis of compounds was conducted following bolus intravenous (IV) or bolus oral (PO) gavage in mice. Female mice (C57BL/6) in the 17-26 g range were weighed, and then administered an individually prescribed dose volume based on body weight of formulated compound via the intravenous (IV; tail vein) or oral gavage (PO) route (IV 5 mL/kg; PO 10 mL/kg). At selected timepoints post administration, blood was collected into vials with anticoagulant, processed for plasma by centrifugation, and then kept frozen ([…]) until analysis.
The in-vivo study plasma samples were analyzed using Ultra Performance Liquid Chromatography (UPLC) with tandem mass spectrometry (MS/MS) detection in multiple reaction monitoring (MRM) mode. A generic bioanalytical method involving plasma sample extraction and cleanup by protein precipitation with acetonitrile was used followed by UPLC-MS/MS analysis.
A brief example of a generic bioanalytical UPLC-MS/MS method used for analysis of compounds in the in-vivo study plasma samples is as follows. Plasma samples were spiked with internal standard prior to extraction and cleanup by protein precipitation with ice cold acetonitrile containing 0.1% (v/v) ammonium hydroxide at a ratio of 3:1 (solvent:plasma) and centrifuged at 18213 rcf for 15 minutes at 4° C. to pellet precipitates. Aliquots of supernatants were transferred to a 96-well plate and evaporated to dryness at 40° C. under a stream of nitrogen gas. Samples were reconstituted in 50:50 acetonitrile/10 mM ammonium acetate buffer pH 8, mixed thoroughly and analyzed using Ultra Performance Liquid Chromatography (UPLC) with tandem mass spectrometry (MS/MS) detection in multiple reaction monitoring (MRM) mode. Matrix-matched calibration standards and quality control (QC) samples were prepared in naïve C57Bl/6 mouse plasma. The UPLC column used was Waters Acquity UPLC BEH C18 1.7 um, 2.1 mm×50 mm (with guard column). The UPLC mobile phase consisted of: Mobile phase A: 10 mM ammonium acetate in Water pH 8, and Mobile phase B: Acetonitrile. Separation was accomplished with a linear gradient of 5% mobile phase B to 95% mobile phase B in 2 min, and a flow rate of 0.35 mL/min. The MS/MS data acquisition was accomplished using 3 MRM Transitions in ESI+ mode. Parent ion mass 508.37 m/z-to-Daughter ions (m/z) 117.05, 232.13 and 270.22. The quantitation of concentrations in test samples was achieved by matrix-matched calibration with normalization using an internal standard. Data acquisition and analysis were performed using Waters MassLynx software with TargetLynx application manager.
Estimation of PK parameters was performed using independent noncompartmental model method by PHOENIX WinNonlin software.

Compound: O=C(COc1cnc(N[C@H]2CC[C@@H](Oc3nc(N4CCOCC4)cc4ncccc34)CC2)nc1)N1CCOCC1 [Compound 61, 1-Morpholino-2-((2-(((1s,4s)-4-((7-morpholino-1,6-naphthyridin-5-yl)oxy)cyclohexyl)amino)pyrimidin-5-yl)oxy)ethan-1-one]
- CS-ER Range Score (FaDu tumour xenograft; 2 h): C (<4=C)
- CS-ER Range Score (FaDu tumour xenograft; 4 h): B (4-6=B)
- Rsq ([1]; IV, 3 mg/kg): 0.97
- Rsq ([1]; PO, 10 mg/kg): 0.93
- F [1]: 72%
- AUC(0-t) ([1]; IV, 3 mg/kg): 5210 ng·h/mL
- Cmax at 5 min ([1]; IV, 3 mg/kg): 4900 ng/mL
- half-life ([1]; IV, 3 mg/kg): 2.2 h
- AUC(0-inf) ([1]; IV, 3 mg/kg): 5340 ng·h/mL
- AUC(0-t) ([1]; PO, 10 mg/kg): 12600 ng·h/mL
- Cmax at 5 min ([1]; PO, 10 mg/kg): 3510 ng/mL
- half-life ([1]; PO, 10 mg/kg): 2.05 h
- AUC(0-inf) ([1]; PO, 10 mg/kg): 12600 ng·h/mL
- AUC_% Extrap_obs ([1]; IV, 3 mg/kg): 2.45%
- Cl_obs ([1]; IV, 3 mg/kg): 9.3625 mL/min/kg
- Vz_obs ([1]; IV, 3 mg/kg): 1.7849 L/kg
- AUC_% Extrap_obs ([1]; PO, 10 mg/kg): 0.05%
- Cl_obs ([1]; PO, 10 mg/kg): 13.265 mL/min/kg
- Vz_obs ([1]; PO, 10 mg/kg): 2.35641 L/kg

Compound: CN(C)C(=O)Cn1c(=O)n(C2CCOCC2)c2nc(N[C@H]3CC[C@@H](Oc4nc(N5CCOCC5)cc5ncccc45)CC3)ncc21 [Compound 97, N,N-Dimethyl-2-(2-(((1s,4s)-4-((7-morpholino-1,6-naphthyridin-5-yl)oxy)cyclohexyl)amino)-8-oxo-9-(tetrahydro-2H-pyran-4-yl)-8,9-dihydro-7H-purin-7-yl)acetamide]
- CS-ER Range Score (FaDu tumour xenograft; 2 h): C (<4=C)
- CS-ER Range Score (FaDu tumour xenograft; 4 h): B (4-6=B)
- Rsq ([1]; IV, 3 mg/kg): 0.98
- Rsq ([1]; PO, 10 mg/kg): 0.98
- F [1]: 47%
- AUC(0-t) ([1]; IV, 3 mg/kg): 4340 ng·h/mL
- Cmax at 5 min ([1]; IV, 3 mg/kg): 4860 ng/mL
- half-life ([1]; IV, 3 mg/kg): 2.21 h
- AUC(0-inf) ([1]; IV, 3 mg/kg): 4380 ng·h/mL
- AUC(0-t) ([1]; PO, 10 mg/kg): 6770 ng·h/mL
- Cmax at 5 min ([1]; PO, 10 mg/kg): 2520 ng/mL
- half-life ([1]; PO, 10 mg/kg): 2.07 h
- AUC(0-inf) ([1]; PO, 10 mg/kg): 6770 ng·h/mL
- AUC_% Extrap_obs ([1]; IV, 3 mg/kg): 0.77%
- Cl_obs ([1]; IV, 3 mg/kg): 11.43 mL/min/kg
- Vz_obs ([1]; IV, 3 mg/kg): 2.18741 L/kg
- AUC_% Extrap_obs ([1]; PO, 10 mg/kg): 0.03%
- Cl_obs ([1]; PO, 10 mg/kg): 24.6043 mL/min/kg
- Vz_obs ([1]; PO, 10 mg/kg): 4.41523 L/kg
